Results taken from patent publication US20070026398A1, “Protein tyrosine phosphatase-prl-1 a a marker and therapeutic target for pancreatic cancer” (priority 2003, published 2007).
pIC50: −log10 of the molar value. Several values for one entry are separate records, joined by “and”; a condition that tells them apart may be missing. Equal values may be shown once. Read-outs that look alike come from different tables or passages of the source.

What was measured:
PRL-1 = biological target: T1, PRL-1 (Homo sapiens, UniProt Q93096); experiment: in vitro PRL-1 phosphatase enzymatic assay (tyrosine phosphatase / DiFMUP assay); format: biochemical; design: INHIBITION % (PRL-1 inhibitory activity): concentration or dose not given beside the values; details: for INHIBITION % (PRL-1 inhibitory activity): UA Natural Products Library hits; for inhibitory activity against PRL-1: Promega tyrosine phosphatase assay system, TNT-expressed His-tagged PRL-1 (FIG. 7C)
T1 sequence (Q93096 1-173): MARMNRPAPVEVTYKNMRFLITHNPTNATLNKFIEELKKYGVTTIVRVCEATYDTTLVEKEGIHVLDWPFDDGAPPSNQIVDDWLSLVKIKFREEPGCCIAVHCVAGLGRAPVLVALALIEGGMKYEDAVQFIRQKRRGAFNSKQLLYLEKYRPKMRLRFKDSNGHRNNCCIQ
From the text: Assays that measure the removal of phosphates from proteins or peptides containing phosphotyrosine may also be employed in the present invention. One method of screening for drug targets would involve measuring inhibition of PRL-1-mediated tyrosine dephosphorylation. This assay detects the amount of free […] generated in a reaction by measuring the absorbance of a molybdate:malachite green:phosphate complex. This assay detects the activity of protein tyrosine phosphatases. Such assays or systems are commercially available from suppliers such as Promega (Madison, Wis.) or Applied Biosystems (Foster City, Calif.).
Another assay employed in the present invention is an improved method for measuring protein phosphatases for high-throughput screening involving 6,8-difluoro-4-methylumbelliferyl phosphate (DiFMUP). DiFMUP can assay both acid and alkaline phosphatase activity. […] The lower pka of its hydrolysis product makes DiFMUP a sensitive substrate for acid phosphatases, which is not possible with MUP because its fluorescence must be measured at alkaline pH. Furthermore, with its high quantum yield, DiFMUP increases the sensitivity of both acid and alkaline phosphatase measurements. […] DiFMUP enables the quantitation of as little as 1.0 pg/ml alkaline phosphatase.
For example, in the present invention, a bacterial expression system may be employed (i.e., pProEx vector) from which recombinant His-tagged PRl-1 protein may be obtained and purified using a column (i.e., a nickel column). The PRl-1 enzymatic activity in the presence of a drug compound of interest and in combination with DiFMUP substrate may be incubated (about 1 h) and the dephosphorylated substrate detected.
To produce PRL-1 protein for in vitro phosphatase assays, the PRL-1 gene was cloned into an expression vector with a His tag (pcDNA™ 3.1 from Invitrogen) and the protein expressed in vitro using the TNT coupled transcription and translation kit (Promega). […] The molecular weight of this PRL-1 protein (22KDa) is exactly the same as reported in the literature. An in vitro phosphatase assay was conducted using a tyrosine phosphatase assay system (Promega) to confirm the dephosphorylation activity of the recombinant PRL-1 protein.
This assay was optimized and used to screen various compound libraries for PRL-1 inhibitors. […] Compounds identified using the DiFMUP in vitro assay to screen compounds from the Nanosyn Combichem library and the NCI database include NS19999, NS45609, NS45336, and NCI668394 respectively.
The inventors first cloned the full length open reading frame of PRL-1 to the bacteria expression vector pProEx-HTa (Invitrogen) under the control of an IPTG inducible promoter. A six-histidine tag was added to the C-terminus of PRL-1 for quick purification of PRL-1 using the Ni-NTA system. The expression vector was transformed to bacteria strain BL21 and checked for PRL-1 expression using Western blot. For large scale expression, bacteria were grown in 500 ml LB media to logarithm phase (OD600 between 0.5 to 0.9) and induced to express PRL-1 by adding IPTG to final concentration of 1 mM and incubating for 4 hours. Bacteria were harvested by centrifugation at 5,000 rpm for 5 min and resuspended in the Native Binding Buffer (50 mM NaPO4, 0.5M NaCl, pH8.0, and 10 mM imidazole) at 16 ml/100 ml culture. The bacteria cells were then lysated by adding lmg/ml lysozyme and sonication. The cell lysate was centrifuged at 3,000 g for 15 min and the supernatant were then transferred to a 10-ml column pre-packed with 1.5 ml of Ni-NTA resin (Invitrogen). The column was gently agitated for 60 min to allow the binding of the His-tagged PRL-1 to the resin. After the binding reaction, the column was washed with the Native Wash Buffer (50 mM NaPO4, 0.5M NaCl, pH 8.0, and 20 mM imidazole) for 4 times. Finally, the PRL-1 protein was eluted off the column with 10 ml of Native Elution Buffer (50 mM NaPO4, 0.5 M NaCl, pH 8.0, and 250 mM imidazole). […]

Mia PaCa-2 cells = experiment: cell proliferation assay in Mia PaCa-2 pancreatic cancer cells; format: cell-based; details: Homo sapiens
Description: FIGS. 13A-13C. Inhibition of cell proliferation by PRL-1 inhibitors using a SRB staining assay. FIG.13A—Inhibition of MiaPaCa-2 cell growth by UA668394. Cells were exposed to different doses of UA668394 (0.2 μM to 200 μM) for four days by SRB (Sulforhodamine B) staining. […] FIG. 13B—Inhibition of cell proliferation in pancreatic cancer cells Panc-1 and Mia PaCa-2 by the compound UA66839-1 analog. FIG. 13C—Inhibition of cell proliferation in pancreatic cancer cells Panc-l and Mia PaCa-2 by the compound UA668394-2 analog.
Cell Proliferation Assays. Cell proliferation assays with these cell lines are performed to determine the effect of target inhibition on cell growth. Cells are seeded at 2.0-5.0×10^5 cells in 100-mm culture dishes and allow to attach overnight at 37° C. Adherent cells are washed and incubated with serum-free RPMI 1640 or RPMI containing 10% FBS for 48 h, after which they are trypsinized and counted using a hemocytometer. In addition, parallel experiments are perform and instead of cell counts, the proliferative status of the cell lines is determined using flow cytometric analysis of DNA content. For flow analysis, cells are stained with propidium iodide using a modified Krishan technique (Krishan, 1975). All samples are analyze with an FACSCAN flow cytometer (Becton Dickinson) using a 15 mWatt argon ion laser operated at 6 mWatts of power at 488 nm. Photomultiplier tube voltage is adjusted for each control sample to position the G0/G1 to channel 240 on a 1024 channel presentation. Histograms are analyze for cell cycle compartments using CELLQUEST (Becton Dickinson) analysis software. Histograms having 50K events are collected to maximize the statistical validity of the compartmental analysis. The results of this flow analysis allow the examination of the cell cycle distribution of the pancreatic cancer cell lines.
UA668394 was previously identified as a PRL-1 phosphatase inhibitor (IC50=7 μM) using high throughout library screening.
Compounds identified as being positive for anti-PRL-1 activity were tested for their ability to inhibit cell proliferation in human pancreatic cancer cells. The inhibitory activity of UA668394, UA19999 and UA45336 (Table 5) were examined. Cell proliferation assays were conducted using the pancreatic cancer cell line Mia PaCa-2, as described in Example 1. Briefly, 2.0-5.0×10^5 cells were seeded in 100-mm culture dishes and allowed to attach overnight at 37° C. Adherent cells were washed and incubated with serum-free RPMI 1640 or RPMI containing 10% FBS for 48 h, and treated with the compound of interest to determine its effect on the inhibition of cell growth. For example, cells were treated with of the UA668394, UA19999 and UA45336 compounds and analyzed for inhibition of cell proliferative using a MTS assay.

[1] = PRL-1 inhibitors identified by library screening, read-out: IC50
[2] = MIA PaCa-2, MTS cell proliferation assay, read-out: IC50, inhibition of cell proliferation in Mia PaCa-2 cells

C=CCn1c(SCC(=O)O)nnc1-c1ccc([N+](=O)[O-])cc1 [UA58428]
INHIBITION % (PRL-1 inhibitory activity) (PRL-1): 42%

CC(=O)Oc1cc(OC(C)=O)c2c(c1)OC(=O)C(Cl)C2C (centres unmarked) [UA14798]
pIC50 (PRL-1; [1]): 4.19

Brc1cccc(C2=NC(c3ccccc3)=C3C=CC=CN3C2)c1 [UA21497]
pIC50 (PRL-1; [1]): 7.00

N#CC1=C(N)NC(=S)C(C(N)=O)C1c1ccccc1F (centres unmarked) [UA64859]
INHIBITION % (PRL-1 inhibitory activity) (PRL-1): 76%

Nc1cc(S(=O)(=O)C(F)(F)F)ccc1C(=O)O [UA12882, 2-Amino-4-trifluoromethanesulfonyl-benzoic acid]
pIC50 (PRL-1; [1]): 4.60

O=C(O)CN(CCN(CC(=O)O)CC(=O)O)CC(=O)O [EDTA, reference compound]
inhibitory activity against PRL-1 (PRL-1): some inhibitory activity

O=C1C=Cc2cc(Br)ccc2C1=O [UA13082]
pIC50 (PRL-1; [1]): 5.06

C=[N+](OC)c1nn(CC(=O)Nc2sc(C)c(C)c2C(N)=O)c(C)c1Br [UA47548]
INHIBITION % (PRL-1 inhibitory activity) (PRL-1): 70%

NC(=O)c1cc2ccc(O)cc2oc1=O [UA63415]
INHIBITION % (PRL-1 inhibitory activity) (PRL-1): 62%

COc1ccccc1C=C1C(=O)NC(=O)NC1=O [UA12499]
pIC50 (PRL-1; IC50, PRL-1 inhibitors identified by library screening): 4.44

C=Cc1ccc2c3c(ccc(C=O)c13)C(Cl)=CC2=O [UA61880]
INHIBITION % (PRL-1 inhibitory activity) (PRL-1): 50%

[Na+].[Na+].[Na+].[O]=[V]([O-])([O-])[O-] [sodium orthovanadate, reference compound]
inhibitory activity against PRL-1 (PRL-1): some inhibitory activity

COc1cc(NCCC(C)=O)c2ncccc2c1 [UA292O9]
pIC50 (PRL-1; [1]): 4.39

O=C1C(O)=C([N+](=O)[O-])C(=O)c2ccccc21 [UA45609]
pIC50 (PRL-1; [1]): 4.77

COC(=O)c1nc(O)c2ccccc2c1O [UA45336]
pIC50 (PRL-1; [1]): 4.90
pIC50 (Mia PaCa-2 cells; [2]): 4.02

O=C(O)c1ccc2c(c1)C(=O)N(c1cccc3ccccc13)C2=O [UA13464]
pIC50 (PRL-1; [1]): 4.14

CCC1=NN(c2ccccc2)C(=O)C(CC(=O)Nc2ccccc2)c2cc(OC)c(OC)cc21 (centres unmarked) [UA12812]
pIC50 (PRL-1; [1]): 4.18

CN1C(=O)C(=O)c2cc([N+](=O)[O-])ccc21 [UA19999]
pIC50 (PRL-1; [1]): 4.48
pIC50 (Mia PaCa-2 cells; [2]): 3.92

O=C1C=C(NCCc2cc(Br)c(O)c(Br)c2)C(=O)c2ncccc21 [UA668394]
pIC50 (PRL-1; [1]): 5.15 and 5.14
pIC50 (Mia PaCa-2 cells; MIA PaCa-2, 96 h, SRB staining, four days exposure, 0.2 μM to 200 μM (FIG. 13A legend), read-out: estimated IC50, inhibition of MiaPaCa-2 cell growth): 5.92
pIC50 (Mia PaCa-2 cells; [2]): 5.92
